This note sets out measurements from ChEMBL document CHEMBL1201862, “PubChem BioAssay data set” (2004).

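Compound exposure: 48 hours, 5 concentrations, 96-well plates. At the GI50, growth is halved.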 Calls of active or inactive are those of the source. Rule as the data show it: active = GI50 up to about 1.1 µM and inactive = higher. Bounds are passed on as bounds.

Among the test systems are 786-0; EKVX; HCT-116; HOP-62; HOP-92; HT-29; KM12; M14; MDA-MB-231; MDA-MB-435; MDA-N; NCI-H23; NCI-H460; PC-3; RXF 393; SF-539; SK-MEL-2; SNB-75; SW-620; T47D.
What all share (experiment): DTP human tumour cell line panel, 48 h

As to `CCc1ccccc1N1CCN(C(=O)c2cc(OC)c(OC)c(OC)c2)CC1`, the GI50 is < 0.0149 µM (active) with 786-0; 1.39 µM (inactive) in the experiment with EKVX; 0.042 µM (active) with HCT-116; 0.0217 µM (active) in the experiment with HOP-62; 0.0977 µM (active) in the experiment on HOP-92; 0.0225 µM (active) in the experiment with HT-29. In addition, the GI50 was 0.0231 µM (active) with KM12; 0.0135 µM (active) in the experiment with M14; 0.057 µM (active) in the experiment with MDA-MB-231; < 0.01 µM (active) with MDA-MB-435; < 0.01 µM (active) in the experiment with MDA-N; 0.0557 µM (active) in the experiment on NCI-H23. Also, the GI50 with NCI-H460 was 0.0307 µM (active); in the experiment with PC-3, < 0.0144 µM (active); in the experiment with RXF 393, 0.0105 µM (active); in the experiment on SF-539, 0.0212 µM (active); with SK-MEL-2, 0.0247 µM (active); in the experiment on SNB-75 it was 0.0182 µM (active). The GI50 in the experiment with SW-620 is 0.0208 µM (active); with T47D, 17.3 µM (inactive).

With `CC(=O)OCC1OC(n2c(-c3ccccc3)c(C(C)=O)c(-c3ccc(Cl)cc3)c(C#N)c2=S)C(OC(C)=O)C(OC(C)=O)C1OC(C)=O` (stereo not given), the GI50 is > 100 µM (inactive) in the experiment on 786-0; > 100 µM (inactive) in the experiment with EKVX; 83.2 µM (inactive) with HCT-116; > 100 µM (inactive) in the experiment with HOP-62; 0.601 µM (active) with HOP-92; > 100 µM (inactive) with HT-29. For the same compound, the GI50 was > 100 µM (inactive) in the experiment with KM12; > 100 µM (inactive) in the experiment with M14; 70.3 µM (inactive) with MDA-MB-231; > 100 µM (inactive) with MDA-MB-435; 62.8 µM (inactive) with MDA-N; > 100 µM (inactive) in the experiment with NCI-H23. Moreover, the GI50 was 26.8 µM (inactive) with NCI-H460; 1.93 µM (inactive) in the experiment with PC-3; 65.5 µM (inactive) in the experiment with RXF 393; > 100 µM (inactive) in the experiment with SF-539; < 0.01 µM (active) in the experiment with SK-MEL-2; 32.3 µM (inactive) in the experiment on SNB-75. Further, the GI50 in the experiment on SW-620 and in the experiment with T47D was > 100 µM (inactive) each time.

In the case of `Cc1nc(O)nc2nc3cc(Cl)cc(Cl)c3c(NC(C)(CO)CO)c12`, the GI50 in the experiment on 786-0 is 15.6 µM (inactive); in the experiment with EKVX, > 100 µM (inactive); with HCT-116 it was 34 µM (inactive); in the experiment on HOP-62 it was 23.5 µM (inactive); in the experiment on HOP-92 it was 16.4 µM (inactive); in the experiment on HT-29 it was > 100 µM (inactive). Besides, the GI50 in the experiment with KM12 was > 100 µM (inactive); in the experiment with M14 it was > 100 µM (inactive); in the experiment on MDA-MB-231, 14.7 µM (inactive); in the experiment on MDA-MB-435 it was > 100 µM (inactive); in the experiment with MDA-N it was > 100 µM (inactive); with NCI-H23, 81.8 µM (inactive). The GI50 was > 100 µM (inactive) with NCI-H460; > 100 µM (inactive) with PC-3; 27.8 µM (inactive) in the experiment on RXF 393; > 100 µM (inactive) in the experiment on SF-539; 29.1 µM (inactive) with SK-MEL-2; 11.4 µM (inactive) with SNB-75. Besides, the GI50 in the experiment with SW-620 and with T47D was > 100 µM (inactive) in each case.

For the compound `CC(CC(C)[C@H]1CCC2[C@H]3C(CC(=O)[C@@]21C)[C@@]1(C)CCC(O)C[C@H]1C[C@@H]3O)C(=O)O` (stereo not given in full), the GI50 in the experiment with 786-0, in the experiment with EKVX, with HCT-116, in the experiment on HOP-62, in the experiment with HOP-92 and with HT-29 was > 100 µM (inactive) in each case. Further, the GI50 in the experiment on KM12, in the experiment with M14, in the experiment on MDA-MB-231, with MDA-MB-435, in the experiment with MDA-N and with NCI-H23 was > 100 µM (inactive) throughout. The GI50 in the experiment with NCI-H460 was 61.8 µM (inactive); with PC-3, > 100 µM (inactive); in the experiment with RXF 393, > 100 µM (inactive); in the experiment on SF-539, > 100 µM (inactive); in the experiment on SK-MEL-2, > 100 µM (inactive); in the experiment on SNB-75 it was > 100 µM (inactive). The GI50 with SW-620 is 87.1 µM (inactive); in the experiment on T47D, > 100 µM (inactive).

`COc1cc2c[n+](C)c3c4ccccc4ccc3c2cc1OC.COc1cc2cnc3c4ccccc4ccc3c2cc1OC`: the GI50 in the experiment on 786-0 is 12.3 µM (inactive); in the experiment on EKVX, 2.2 µM (inactive); with HCT-116, 7.83 µM (inactive); with HOP-62, 19.1 µM (inactive); in the experiment with HOP-92, 10.6 µM (inactive); in the experiment on HT-29, 7.59 µM (inactive). In addition, the GI50 with KM12 is 0.859 µM (active); in the experiment with M14, 20.2 µM (inactive); in the experiment on MDA-MB-231, 2.79 µM (inactive); in the experiment on MDA-MB-435 it was 2.87 µM (inactive); in the experiment on MDA-N, 7.05 µM (inactive); in the experiment on NCI-H23, 12.2 µM (inactive). Further, the GI50 with NCI-H460 was 11.6 µM (inactive); in the experiment with PC-3, 2.84 µM (inactive); with RXF 393 it was 21.2 µM (inactive); with SF-539, 10 µM (inactive); in the experiment on SK-MEL-2 it was 9.82 µM (inactive); in the experiment with SNB-75, 3.54 µM (inactive). The GI50 in the experiment with SW-620 is 4.34 µM (inactive); in the experiment with T47D, 3.14 µM (inactive).

Regarding `Nc1c2c(nc3ccccc13)-c1ccccc1CCC2`, the GI50 in the experiment with 786-0 is 14.1 µM (inactive); with EKVX it was 17.3 µM (inactive); in the experiment with HCT-116, 7.16 µM (inactive); in the experiment on HOP-62, 10.2 µM (inactive); in the experiment with HOP-92, 9.12 µM (inactive); in the experiment with HT-29 it was 10.3 µM (inactive). The GI50 in the experiment on KM12 was 14.1 µM (inactive); in the experiment with M14, 13.1 µM (inactive); in the experiment with MDA-MB-231 it was 13.8 µM (inactive); in the experiment with MDA-MB-435, 13.5 µM (inactive); in the experiment on MDA-N it was 13.2 µM (inactive); in the experiment on NCI-H23, 15.7 µM (inactive). Besides, the GI50 is 4.89 µM (inactive) in the experiment on NCI-H460; 15.1 µM (inactive) in the experiment on PC-3; 11.2 µM (inactive) in the experiment with RXF 393; 13.4 µM (inactive) in the experiment with SF-539; 15 µM (inactive) in the experiment with SK-MEL-2; 10.2 µM (inactive) in the experiment on SNB-75. For the same compound, the GI50 with SW-620 is 11.6 µM (inactive); in the experiment with T47D, 13.2 µM (inactive).

In the case of `Cc1cc2c(cc1C)C(=O)c1ncccc1C2=O`, the GI50 in the experiment with 786-0 was 28.5 µM (inactive); with EKVX, 17.4 µM (inactive); in the experiment on HCT-116, 19.9 µM (inactive); in the experiment with HOP-62, 71.3 µM (inactive); in the experiment on HOP-92, 58.6 µM (inactive); in the experiment with HT-29, 23.3 µM (inactive). Further, the GI50 in the experiment on KM12 is 31.5 µM (inactive); in the experiment with M14 it was 23.6 µM (inactive); in the experiment with MDA-MB-231, 22.6 µM (inactive); in the experiment on MDA-MB-435, 16.8 µM (inactive); in the experiment with MDA-N, 18.7 µM (inactive); in the experiment with NCI-H23 it was 15.6 µM (inactive). The GI50 in the experiment on NCI-H460 is 7.91 µM (inactive); in the experiment on PC-3, 29 µM (inactive); in the experiment with RXF 393 it was 33.2 µM (inactive); with SF-539, 26.5 µM (inactive); in the experiment on SK-MEL-2 it was 48.5 µM (inactive); in the experiment on SNB-75, 54.5 µM (inactive). Moreover, the values for the GI50 with SW-620 and in the experiment with T47D were 30.9 µM (inactive) and 34.8 µM (inactive), respectively.

As for `C(=N/Nc1ccccn1)/c1cccnc1`, the GI50 in the experiment with 786-0 was > 100 µM (inactive); in the experiment on EKVX it was 49.4 µM (inactive); in the experiment with HCT-116 it was > 100 µM (inactive); with HOP-62, > 100 µM (inactive); in the experiment on HOP-92, > 100 µM (inactive); in the experiment with HT-29 it was > 100 µM (inactive). Moreover, the GI50 was 68.7 µM (inactive) in the experiment with KM12; 62.7 µM (inactive) in the experiment on M14; > 100 µM (inactive) in the experiment on MDA-MB-231; > 100 µM (inactive) with MDA-MB-435; > 100 µM (inactive) in the experiment with MDA-N; 75 µM (inactive) with NCI-H23. Further, the GI50 is > 100 µM (inactive) in the experiment on NCI-H460; > 100 µM (inactive) with PC-3; > 100 µM (inactive) with RXF 393; > 100 µM (inactive) in the experiment on SF-539; > 100 µM (inactive) in the experiment with SK-MEL-2; 58.6 µM (inactive) with SNB-75. The GI50 in the experiment with SW-620 and with T47D was > 100 µM (inactive) throughout.

As to `C=CCNc1nc2c(s1)C(=O)c1ccccc1C2=O`, the GI50 is 14.5 µM (inactive) in the experiment on 786-0; 15.6 µM (inactive) with EKVX; 3.81 µM (inactive) in the experiment on HCT-116; 13.4 µM (inactive) in the experiment with HOP-62; 9.31 µM (inactive) in the experiment with HOP-92; 21.8 µM (inactive) in the experiment with HT-29. Moreover, the GI50 in the experiment with KM12 is 13.8 µM (inactive); in the experiment on M14, 5.12 µM (inactive); in the experiment on MDA-MB-231, 10 µM (inactive); with MDA-MB-435, 1.91 µM (inactive); in the experiment on MDA-N, 1.86 µM (inactive); in the experiment with NCI-H23 it was 4.4 µM (inactive). In addition, the GI50 in the experiment with NCI-H460 was 12 µM (inactive); in the experiment on PC-3 it was 12.6 µM (inactive); in the experiment with RXF 393, 18.6 µM (inactive); with SF-539, 8.11 µM (inactive); with SK-MEL-2, 10.9 µM (inactive); in the experiment with SNB-75, 18.7 µM (inactive). Also, the GI50 with SW-620 is 12.9 µM (inactive); in the experiment on T47D, 14.4 µM (inactive).

Take `CCCCc1ccc(Nc2nc(Cl)c3c(ncn3COCCOC(C)=O)n2)cc1`: the GI50 with 786-0 was 20.1 µM (inactive); in the experiment on EKVX, 19.8 µM (inactive); with HCT-116, 17.3 µM (inactive); in the experiment with HOP-62, 16.7 µM (inactive); with HOP-92, 18.6 µM (inactive); in the experiment on HT-29, 18.7 µM (inactive). Besides, the GI50 in the experiment with KM12 was 18 µM (inactive); in the experiment with M14, 17.9 µM (inactive); in the experiment on MDA-MB-231 it was 18.5 µM (inactive); in the experiment with MDA-MB-435 it was 17.7 µM (inactive); in the experiment with MDA-N it was 18.8 µM (inactive); in the experiment on NCI-H23, 18.7 µM (inactive). For the same compound, the GI50 in the experiment on NCI-H460 is 18.3 µM (inactive); in the experiment with PC-3, 20.9 µM (inactive); in the experiment with RXF 393 it was 12.9 µM (inactive); with SF-539 it was 19 µM (inactive); with SK-MEL-2, 19.1 µM (inactive); in the experiment with SNB-75 it was 2.2 µM (inactive). Moreover, the GI50 in the experiment on SW-620 was 23.1 µM (inactive); in the experiment with T47D, 17.8 µM (inactive).

One may read the GI50 as the concentration giving 50% growth inhibition.
